# From US20260250290A1 (BRISTOL-MYERS SQUIBB COMPANY, priority 2023, published 2026)
# Counter-ions that a name gives are not always drawn.
# Molecular target: T1, full length SGK1 (Homo sapiens, UniProt O00141)
# T1 construct: 125 μM full length SGK1 (Life Technologies Part #PR7358A); purchased Life Technologies PR7358A
# T1 sequence (O00141 1-431): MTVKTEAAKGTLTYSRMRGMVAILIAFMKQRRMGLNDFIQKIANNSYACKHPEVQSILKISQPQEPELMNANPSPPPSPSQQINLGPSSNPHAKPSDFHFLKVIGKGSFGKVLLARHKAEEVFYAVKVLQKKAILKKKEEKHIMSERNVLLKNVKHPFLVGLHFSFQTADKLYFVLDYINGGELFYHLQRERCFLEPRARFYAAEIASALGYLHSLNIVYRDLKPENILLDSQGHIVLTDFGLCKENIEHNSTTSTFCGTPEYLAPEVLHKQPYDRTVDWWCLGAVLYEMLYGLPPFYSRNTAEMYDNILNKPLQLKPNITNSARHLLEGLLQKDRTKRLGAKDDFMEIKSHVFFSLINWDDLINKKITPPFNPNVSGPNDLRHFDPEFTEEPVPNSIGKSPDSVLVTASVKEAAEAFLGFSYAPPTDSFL
# Assay: SGK1 inhibition Assay A (Caliper LabChip electrophoretic separation of fluorescent peptide substrate and phosphorylated product)
# Assay type: biochemical
# Settings: Assay A; 20 μM ATP, 40 min incubation; read-out: SGK1 IC50
row,SMILES,IC50 [nM]
1,"Nc1ncnn2c(-c3ccnc(F)c3)cc(N3CCC[C@@H](NC(=O)c4csc(Cl)c4)C3)c12 [Example 161, (R)-N-(1-(4-amino-7-(2-fluoropyridin-4-yl)pyrrolo[2,1-f][1,2,4]triazin-5-yl)piperidin-3-yl)-5-chlorothiophone-3-carboxamide]",2
2,"COCCOc1cc(Cl)sc1C(=O)N[C@@H]1CCCN(c2cc(-c3ccc(C(N)=O)c(F)c3)n3ncnc(N)c23)C1 [Example 162, (R)-N-(1-(4-amino-7-(4-carbamoyl-3-fluorophenyl)pyrrolo [2,1-f][1,2,4]triazin-5-yl)piperidin-3-yl)-5-chloro-3-(2-methoxyethoxy) thiophene-2-carboxamide]",5
3,"NC(=O)c1ccc(-c2cc(N3CCC[C@@H](NC(=O)c4sc(Cl)cc4OCCN4CCOCC4)C3)c3c(N)ncnn23)cc1F [Example 163, (R)-N-(1-(4-amino-7-(4-carbamoyl-3-fluorophenyl)pyrrolo [2,1-f][1,2,4]triazin-5-yl)piperidin-3-yl)-5-chloro-3-(2-morpholinoethoxy) thiophene-2-carboxamide, TFA]",6
4,"CN(C)CCOc1cc(Cl)sc1C(=O)N[C@@H]1CCCN(c2cc(-c3ccc(C(N)=O)c(F)c3)n3ncnc(N)c23)C1 [Example 164, (R)-N-(1-(4-amino-7-(4-carbamoyl-3-fluorophenyl)pyrrolo [2,1-f][1,2,4]triazin-5-yl)piperidin-3-yl)-5-chloro-3-(2-(dimethylamino)ethoxy)thiophene-2-carboxamide, 2 TFA]",2
5,"CC(C)(O)CCOc1cc(Cl)sc1C(=O)N[C@@H]1CCCN(c2cc(-c3ccnc(F)c3)n3ncnc(N)c23)C1 [Example 166, (R)—N-(1-(4-amino-7-(2-fluoropyridin-4-yl)pyrrolo[2,1-f][1,2,4]triazin-5-yl)piperidin-3-yl)-5-chloro-3-(3-hydroxy-3-methylbutoxy)thiophene-2-carboxamide]",3
6,"CN1CCN(CCOc2cc(Cl)sc2C(=O)N[C@@H]2CCCN(c3cc(-c4ccnc(F)c4)n4ncnc(N)c34)C2)CC1 [Example 167, (R)—N-(1-(4-amino-7-(2-fluoropyridin-4-yl)pyrrolo[2,1-f][1,2,4]triazin-5-yl)piperidin-3-yl)-5-chloro-3-(2-(4-methylpiperazin-1-yl)ethoxy)thiophene-2-carboxamide, 2 TFA]",1
7,"C=Cc1cc(C)sc1C(=O)N[C@@H]1CCCN(c2cc(-c3ccnc(F)c3)n3ncnc(N)c23)C1 [Example 169, (R)—N-(1-(4-amino-7-(2-fluoropyridin-4-yl)pyrrolo[2,1-f][1,2,4]triazin-5-yl)piperidin-3-yl)-5-methyl-3-vinylthiophene-2-carboxamide]",12
8,"Cc1cc(Br)c(C(=O)N[C@@H]2CCCN(c3cc(-c4ccnc(F)c4)n4ncnc(N)c34)C2)s1 [Example 170, (R)—N-(1-(4-amino-7-(2-fluoropyridin-4-yl)pyrrolo[2,1-f][1,2,4]triazin-5-yl)piperidin-3-yl)-3-bromo-5-methylthiophene-2-carboxamide]",6
9,"CN(C)CCOc1cc(Cl)sc1C(=O)N[C@@H]1CCCN(c2cc(C3=CCNC3)n3ncnc(N)c23)C1 [Example 171, (R)—N-(1-(4-amino-7-(2,5-dihydro-1H-pyrrol-3-yl)pyrrolo[2,1-f][1,2,4]triazin-5-yl)piperidin-3-yl)-5-chloro-3-(2-(dimethylamino)ethoxy)thiophene-2-carboxamide, 3 TFA]",16
10,"CN(C)CCOc1cc(Cl)sc1C(=O)N[C@@H]1CCCN(c2cc(C3=CCNCC3)n3ncnc(N)c23)C1 [Example 172, (R)—N-(1-(4-amino-7-(1,2,3,6-tetrahydropyridin-4-yl)pyrrolo[2,1-f][1,2,4]triazin-5-yl)piperidin-3-yl)-5-chloro-3-(2-(dimethylamino)ethoxy)thiophene-2-carboxamide, 3 TFA]",350
11,"COC(=O)N1CC=C(c2cc(N3CCC[C@@H](NC(=O)c4sc(Cl)cc4OCCN(C)C)C3)c3c(N)ncnn23)C1 [Example 173, methyl (R)-3-(4-amino-5-(3-(5-chloro-3-(2-(dimethylamino)ethoxy)thiophene-2-carboxamido)piperidin-1-yl)pyrrolo[2,1-f][1,2,4]triazin-7-yl)-2,5-dihydro-1H-pyrrole-1-carboxylate, 2 TFA]",4
12,"COC(=O)N1CC=C(c2cc(N3CCC[C@@H](NC(=O)c4sc(Cl)cc4OCCN(C)C)C3)c3c(N)ncnn23)CC1 [Example 174, methyl (R)-4-(4-amino-5-(3-(5-chloro-3-(2-(dimethylamino)ethoxy)thiophene-2-carboxamido)piperidin-1-yl)pyrrolo[2,1-f][1,2,4]triazin-7-yl)-3,6-dihydropyridine-1(2H)-carboxylate]",37
13,"CC(=O)N1CC=C(c2cc(N3CCC[C@@H](NC(=O)c4sc(Cl)cc4OCCN(C)C)C3)c3c(N)ncnn23)C1 [Example 175, (R)—N-(1-(7-(1-acetyl-2,5-dihydro-1H-pyrrol-3-yl)-4-aminopyrrolo[2,1-f][1,2,4]triazin-5-yl)piperidin-3-yl)-5-chloro-3-(2-(dimethylamino)ethoxy)thiophene-2-carboxamide, 2 TFA]",4
14,"CN(C)CCOc1cc(Cl)sc1C(=O)N[C@@H]1CCCN(c2cc(C3=CCN(C(=O)CC(F)(F)F)C3)n3ncnc(N)c23)C1 [Example 176, (R)-N-(1-(4-amino-7-(1-(3,3,3-trifluoropropanoyl)-2,5-dihydro-1H-pyrrol-3-yl)pyrrolo[2,1-f][1,2,4]triazin-5-yl)piperidin-3-yl)-5-chloro-3-(2-(dimethylamino)ethoxy) thiophene-2-carboxamide, 2 TFA]",4
15,"CN(C)CCOc1cc(Cl)sc1C(=O)N[C@@H]1CCCN(c2cc(C3=CCN(C(=O)C4CC4)C3)n3ncnc(N)c23)C1 [Example 177, (R)-N-(1-(4-amino-7-(1-(cyclopropanecarbonyl)-2,5-dihydro-1H-pyrrol-3-yl)pyrrolo[2,1-f][1,2,4]triazin-5-yl)piperidin-3-yl)-5-chloro-3-(2-(dimethylamino)ethoxy) thiophene-2-carboxamide, 2 TFA]",5
16,"CN(C)CCOc1cc(Cl)sc1C(=O)N[C@@H]1CCCN(c2cc(C3=CCN(C(=O)C4CCC4)C3)n3ncnc(N)c23)C1 [Example 178, (R)-N-(1-(4-amino-7-(1-(cyclobutanecarbonyl)-2,5-dihydro-1H-pyrrol-3-yl)pyrrolo[2,1-f][1,2,4]triazin-5-yl)piperidin-3-yl)-5-chloro-3-(2-(dimethylamino)ethoxy) thiophene-2-carboxamide, 2 TFA]",6
17,"CN(C)CCOc1cc(Cl)sc1C(=O)N[C@@H]1CCCN(c2cc(C3=CCN(C(=O)C4CC(F)(F)C4)C3)n3ncnc(N)c23)C1 [Example 179, (R)-N-(1-(4-amino-7-(1-(3,3-difluorocyclobutane-1-carbonyl)-2,5-dihydro-1H-pyrrol-3-yl)pyrrolo[2,1-f][1,2,4]triazin-5-yl)piperidin-3-yl)-5-chloro-3-(2-(dimethylamino)ethoxy) thiophene-2-carboxamide, 2 TFA]",8
18,"CC(=O)N1CC=C(c2cc(N3CCC[C@@H](NC(=O)c4sc(Cl)cc4OCCN(C)C)C3)c3c(N)ncnn23)CC1 [Example 180, (R)—N-(1-(7-(1-acetyl-1,2,3,6-tetrahydropyridin-4-yl)-4-aminopyrrolo[2,1-f][1,2,4]triazin-5-yl)piperidin-3-yl)-5-chloro-3-(2-(dimethylamino)ethoxy)thiophene-2-carboxamide 2 TFA]",47
19,"CN(C)CCOc1cc(Cl)sc1C(=O)N[C@@H]1CCCN(c2cc(C3=CCN(C(=O)CC(F)(F)F)CC3)n3ncnc(N)c23)C1 [Example 181, (R)-N-(1-(4-amino-7-(1-(3,3,3-trifluoropropanoyl)-1,2,3,6-tetrahydropyridin-4-yl)pyrrolo[2,1-f][1,2,4]triazin-5-yl)piperidin-3-yl)-5-chloro-3-(2-(dimethylamino)ethoxy) thiophene-2-carboxamide, 2 TFA]",17
20,"CN(C)CCOc1cc(Cl)sc1C(=O)N[C@@H]1CCCN(c2cc(C3=CCN(C(=O)C4CC4)CC3)n3ncnc(N)c23)C1 [Example 182, (R)-N-(1-(4-amino-7-(1-(cyclopropanecarbonyl)-1,2,3,6-tetrahydropyridin-4-yl)pyrrolo[2,1-f][1,2,4]triazin-5-yl)piperidin-3-yl)-5-chloro-3-(2-(dimethylamino)ethoxy) thiophene-2-carboxamide, 2 TFA]",35
21,"CN(C)CCOc1cc(Cl)sc1C(=O)N[C@@H]1CCCN(c2cc(C3=CCN(C(=O)C4CCC4)CC3)n3ncnc(N)c23)C1 [Example 183, (R)-N-(1-(4-amino-7-(1-(cyclobutanecarbonyl)-1,2,3,6-tetrahydropyridin-4-yl)pyrrolo[2,1-f][1,2,4]triazin-5-yl)piperidin-3-yl)-5-chloro-3-(2-(dimethylamino)ethoxy) thiophene-2-carboxamide, 2 TFA]",42
22,"CN(C)CCOc1cc(Cl)sc1C(=O)N[C@@H]1CCCN(c2cc(C3=CCN(C(=O)C4CC(F)(F)C4)CC3)n3ncnc(N)c23)C1 [Example 184, (R)-N-(1-(4-amino-7-(1-(3,3-difluorocyclobutane-1-carbonyl)-1,2,3,6-tetrahydropyridin-4-yl)pyrrolo[2,1-f][1,2,4]triazin-5-yl)piperidin-3-yl)-5-chloro-3-(2-(dimethylamino)ethoxy) thiophene-2-carboxamide, 2 TFA]",36
